Assay [1] relates to Eschericia coli (E. coli) strain ATCC25922. In words: standard microdilution MIC, E. coli. The following applies: Escherichia coli. The class given is cell-based, Escherichia coli. The method, then: (§1) The in vitro activity of the compounds of the present disclosure can be determined. Antimicrobial testing is typically performed to determine the minimum inhibitory concentration (MIC). Minimum inhibitory concentrations (MICs) are determined by the microdilution method in a final volume of 100 μl according to protocols outlined by The Clinical and Laboratory Standards Institute (CLSI). Performance standards for reference strains are assessed within the same experimental design to maintain quality control. See, for example, Clinical Laboratory Standards Institute: Methods for dilution antimicrobial susceptibility tests for bacteria that grow aerobically M7-A8. Approved Standard-Eighth Edition. Wayne, Pa.: CLSI; December 2008; and Clinical Laboratory Standards Institute: Performance Standards for Antimicrobial Susceptibility Testing M100-S20; Approved Standard-Twentieth Edition. Wayne, Pa.: CLSI; June 2010.
(§2) The compounds of the present disclosure were tested for antimicrobial activity. The Compounds 1-23 were run against Eschericia coli (E. coli) strain ATCC25922 and against Staphylococcus aureus (S. aureus) 11540 strain using a standard microdilution assay to determine minimum inhibitory concentrations (MICs). […] It will be recognized by one skilled in the art that the compounds can be assessed against other bacterial organisms and that the presentation of data for activity against Eschericia coli and Staphylococcus aureus are illustrative and in no way is intended to limit the scope of the present disclosure. The compounds of the present disclosure can be assayed against a range of other microorganisms depending upon the performance activity desired to be gathered. Furthermore, the “+” and “−” representation and the selection of a cutoff value of 16 micrograms/mL is also illustrative and in no way is intended to limit the scope of the present disclosure.

Assay [2] concerns Staphylococcus aureus (S. aureus) 11540 strain. Briefly: standard microdilution MIC, S. aureus. The class given is cell-based. As to conditions: Staphylococcus aureus. The method, then:
as §1, §2

Assay [3] concerns Chinese hamster ovary (CHO) cells. Briefly: cytotoxicity against CHO cell line (Cell Titer Blue). It counts as cell-based. The following applies: Cricetulus griseus, 24 h, CHO-K1 cells, 24 hours incubation, percent cell kill. The method, then:
The compounds of the present disclosure were tested for cytotoxicity against Chinese hamster ovary (CHO) cells.
The assay was performed by seeding CHO—K1 in F12K medium containing 13.33% Fetal Bovine Serum […]. 37.5 μl of cell suspension at a concentration of 9,500 cells/well was plated into each column of a 384-well black clear bottom assay plate with the exception of a negative (no cell) control column, and allowed to adhere for 2 hours. The culture media was then removed from the 175 cm^2 flask(s) and the cell monolayer washed with 10 mL of Phosphate Buffered Saline PBS. 3 mL of Cellstripper™ was then added and the flask was incubated for approximately 5 min at 37° C. The cells were dissociated by agitation and 7 mL of F 12K medium containing 10% FBS was added to the flask. A homogeneous cell suspension was obtained by trituration of the flask. The cells were counted with a hemocytometer by diluting an aliquot of the cell suspension in PBS with 0.4% trypan blue. Typically, a ratio of 100 μl cell suspension to 1800 μl PBS to 100 μl trypan blue was used.
The volume of cell suspension containing the number of cells needed to seed the plate(s) (15.2 mL containing 3.8×10^6 cells) was calculated and transferred to a 50 mL centrifuge tube with the appropriate volume of media. 37.5 μl of cells were added to each well of the 384 well plate except for the negative (no cell) control column. A cytotoxicity 100-fold dilution plate was then prepared by manually pipetting 18 μl of 100% DMSO into two columns of an empty low volume dilution plate. 2 μl of a 50 mM solution of compounds 1-23 from the translation plate were manually pipetted into the corresponding columns of the 100-fold dilution plate. 10 μl of 100% DMSO was manually pipetted into all remaining columns of the 100-fold plate.
A 4-fold cytotoxicity plate was prepared beforehand by manually pipetting 48 μl of F12K media (without DMSO and without FBS) into each well of a matrix 384 well plate. The test samples in the 100-fold dilution plate were mixed and diluted. Ten 2-fold dilutions were performed for each compound in duplicate. The 384 cannula array then transferred 2 μl to the 48 μl of media in the cytotoxicity 4-fold dilution plate. The array was then mixed and 12.5 μl of samples from the cytotoxicity 4-fold dilution plate were transferred to the 37.5 μl of cells and media. The final top concentration of samples at this point in the procedure was 50 μM with 10 subsequent 1:2 dilutions down to […]. The final DMSO concentration were 1% and the final concentration of FBS was 10%.
Cycloheximide was run as a control. Specifically, Cycloheximide was diluted to 0.1 mM from 100 mM stock […] and was added to the cytotoxicity 100-fold plate. Upon addition to the cell plate, a range of 1 μM to 1 nM of cycloheximide was run.
A column separate from the one (referred to above) that served as the negative control was used for cell control wells to which only media was added.
The plates were then incubated for 24 hours at 37° C. and 5% CO2. […] The two columns used earlier to prepare the 100-fold dilution plate by pipetting 18 μl of 100% DMSO contained the samples tested at 200 μM. After the 24 hour incubation period, the 4 μl of Cell Titer blue was added to each well using a Multichannel Matrix pipettor. The plates were returned to the incubator and incubated for an additional 5 hours. Fluorescence (530 nm excitation wavelength/590 nm emission wavelength) was measured on a Wallac Victor microplate reader.
Cell viability was assessed fluorometrically after a 5 hour incubation with resazurin (Cell Titer Blue™), which is reduced by living cells to the fluorescent resorufin.
The average fluorescence for the negative control was determined to obtain the average blank fluorescence. The average blank fluorescence was subtracted from the fluorescence values obtained for all the test agents. The resulting values are the corrected fluorescence. […]

The source of these data is patent US10815237B2, “Antimicrobials and methods of making and using same” (BIOVERSYS AG, priority 2016, dated 2020).

Where only a bound is given, the exact number is not on record here.

`CSc1cc(-n2cc3cc(-c4cc(CCC[C@H](C)N)cc(Cl)c4F)[nH]c3nc2=O)cc(F)c1[C@@H]1CCC[C@@H](CCNC(=N)CN)N1CCCF` [Compound 50]: the MIC in assay [1] and in assay [2] was ≤ 16 µg/mL throughout. Moreover, the 50% inhibitory concentration (IC50) in assay [3] is 10.1 µM.
In the case of `C[C@H](N)CCCc1cc(-c2cc3cn(-c4ccc([C@@H]5CCC[C@@H](CCNC(=N)CN)N5CCCF)c(F)c4)c(=O)nc3[nH]2)cc(C(F)(F)F)c1` [Compound 44], the MIC in assay [1] and in assay [2] was ≤ 16 µg/mL in each case. Further, the 50% inhibitory concentration (IC50) in assay [3] is > 100 µM.
As for `N=C(CN)NCC[C@@H]1CCC[C@@H](c2ccc(-n3cc4cc(-c5cc(CCC[C@@H](N)C6CC6)cc(C(F)(F)F)c5)[nH]c4nc3=O)cc2F)N1CCCF` [Compound 43], the MIC in assay [1] and in assay [2] was ≤ 16 µg/mL throughout. In addition, in assay [3], the concentration for half-maximal inhibition (IC50) was > 100 µM.
In the case of `C[C@H](N)CCCc1cc(Cl)c(F)c(-c2cc3cn(-c4ccc(CN[C@@H](CO)CCNC(=N)CN5CCSCC5)cc4)c(=O)nc3[nH]2)c1` [Compound 4], the MIC in assay [1] and in assay [2] was ≤ 16 µg/mL in each case. Besides, the IC50 in assay [3] was > 100 µM.
With `C=C[C@@H](CCNC(=N)CN1CCSCC1)NCc1ccc(-n2cc3cc(-c4cc(CCC[C@H](C)N)cc(Cl)c4F)[nH]c3nc2=O)cc1` [Compound 7], the MIC in assay [1] and in assay [2] was ≤ 16 µg/mL each time. In addition, the IC50 in assay [3] is > 100 µM.
Regarding `CN=C(CN)NCC[C@@H]1CCC[C@@H](c2ccc(-n3cc4cc(-c5cc(CCC[C@H](C)N)cc(Cl)c5F)[nH]c4nc3=O)cc2)N1` [Compound 18], the MIC in assay [1] and in assay [2] was ≤ 16 µg/mL each time. The IC50 in assay [3] was > 100 µM.
With `C[C@H](N)CCCc1cc(Cl)c(F)c(-c2cc3cn(-c4ccc([C@@H]5CCC[C@@H](CCNC(=N)CN)N5CCCF)c(F)c4)c(=O)nc3[nH]2)c1` [Compound 46], the MIC in assay [1] and in assay [2] was ≤ 16 µg/mL in each case. Besides, the IC50 in assay [3] is > 100 µM.
As to `CSc1cc(-n2cc3cc(-c4cc(CCC[C@@H](N)C5CC5)cc(Cl)c4F)[nH]c3nc2=O)cc(F)c1[C@@H]1CCC[C@@H](CCNC(=N)CN)N1CCCF` [Compound 52], the MIC in assay [1] and in assay [2] was ≤ 16 µg/mL throughout. In assay [3], this compound yielded an IC50 of 15.9 µM.
Regarding `C=C[C@H](CCNC(=N)CN1CCSCC1)NCc1ccc(-n2cc3cc(-c4cc(CCC[C@H](C)N)cc(Cl)c4F)[nH]c3nc2=O)cc1` [Compound 3], the MIC in assay [1] and in assay [2] was ≤ 16 µg/mL in each case. The IC50 in assay [3] is > 100 µM.
Take `C=C[C@H](N)CCCc1cc(Cl)c(F)c(-c2cc3cn(-c4ccc([C@@H]5CCC[C@@H](CCNC(=N)CN)N5CCCF)cc4)c(=O)nc3[nH]2)c1` [Compound 64]: the MIC in assay [1] and in assay [2] was ≤ 16 µg/mL in each case. Further, the IC50 in assay [3] was > 100 µM.
In the case of `C[C@H](N)CCCc1cc(Cl)c(F)c(-c2cc3cn(-c4ccc([C@@H]5CCC[C@@H](CCNC(=N)CN)N5CCCF)cc4)c(=O)nc3[nH]2)c1` [Compound 20], the MIC in assay [1] and in assay [2] was ≤ 16 µg/mL each time. In assay [3], the IC50 was > 100 µM.
`CSC[C@H](N)CCCc1cc(Cl)c(F)c(-c2cc3cn(-c4ccc([C@@H]5CCC[C@@H](CCNC(=N)CN)N5)cc4)c(=O)nc3[nH]2)c1` [Compound 19]: the MIC in assay [1] and in assay [2] was ≤ 16 µg/mL each time. In addition, in assay [3], the IC50 was > 100 µM.
Take `C[C@H](N)CCCc1cc(-c2cc3cn(-c4ccc([C@@H]5CCC[C@@H](CCNC(=N)CN)N5)cc4)c(=O)nc3[nH]2)cc(C(F)(F)F)c1` [Compound 17]: the MIC in assay [1] and in assay [2] was ≤ 16 µg/mL each time. The IC50 in assay [3] was > 100 µM.
As to `CNCC(=N)NCC[C@@H]1CCC[C@@H](c2ccc(-n3cc4cc(-c5cc(CCC[C@H](C)N)cc(Cl)c5F)[nH]c4nc3=O)cc2)N1` [Compound 67], the MIC in assay [1] and in assay [2] was ≤ 16 µg/mL each time. For the same compound, in assay [3], the IC50 is > 100 µM.
For `C=C[C@@H](CCNC(=N)CN1CC[C@H](F)C1)NCc1ccc(-n2cc3cc(-c4cc(CCC[C@H](C)N)cc(Cl)c4F)[nH]c3nc2=O)cc1` [Compound 5], the MIC in assay [1] and in assay [2] was ≤ 16 µg/mL throughout. For the same compound, the IC50 in assay [3] is > 100 µM.
For `C=C[C@H](N)CCCc1cc(Cl)c(F)c(-c2cc3cn(-c4ccc([C@@H]5CCC[C@@H](CCNC(=N)CN)N5CCCF)c(SC)c4)c(=O)nc3[nH]2)c1` [Compound 61], the MIC in assay [1] and in assay [2] was ≤ 16 µg/mL in each case. This compound came in with an IC50 in assay [3] of 13.6 µM.
Consider `C[C@H](N)CCCc1cc(Cl)c(F)c(-c2cc3cn(-c4ccc([C@@H]5CCC[C@@H](CCNC(=N)[C@H](N)CO)N5)cc4)c(=O)nc3[nH]2)c1` [Compound 58], for which the minimum inhibitory concentration (MIC) in assay [1] and in assay [2] was ≤ 16 µg/mL throughout. Further, the IC50 in assay [3] is > 100 µM.
For `C[C@H](N)CCCc1cc(Cl)c(F)c(-c2cc3cn(-c4ccc([C@@H]5CCC[C@@H](CCNC(=N)[C@H](C)N)N5)cc4)c(=O)nc3[nH]2)c1` [Compound 60], the MIC in assay [1] and in assay [2] was ≤ 16 µg/mL throughout. In addition, the IC50 in assay [3] is > 100 µM.
On to `N=C(CN)NCC[C@@H]1CCC[C@@H](c2ccc(-n3cc4cc(-c5cc(CCC[C@@H](N)C6CC6)cc(Cl)c5F)[nH]c4nc3=O)cc2)N1CCCF` [Compound 45], for which the MIC in assay [1] and in assay [2] was ≤ 16 µg/mL throughout. For the same compound, the IC50 in assay [3] is > 100 µM.
Consider `CSc1cc(-n2cc3cc(-c4cc(CCC[C@@H](N)C5CC5)cc(Cl)c4F)[nH]c3nc2=O)ccc1[C@@H]1CCC[C@@H](CCNC(=N)CN)N1CCCF` [Compound 48], for which the minimal inhibitory concentration (MIC) in assay [1] and in assay [2] was ≤ 16 µg/mL in each case. Besides, the IC50 in assay [3] came to 13.5 µM.
For `C=C[C@H](N)CCCc1cc(-c2cc3cn(-c4ccc([C@@H]5CCC[C@@H](CCNC(=N)CN)N5CCCF)cc4)c(=O)nc3[nH]2)cc(C(F)(F)F)c1` [Compound 56], the minimum inhibitory concentration (MIC) in assay [1] and in assay [2] was ≤ 16 µg/mL in each case. For the same compound, in assay [3], the IC50 was > 100 µM.
Consider `Cc1c2cc(-c3cc(CCC[C@H](C)N)cc(Cl)c3F)[nH]c2nc(=O)n1-c1ccc([C@@H]2CCC[C@@H](CCNC(=N)CN)N2)cc1` [Compound 69], for which the MIC in assay [1] and in assay [2] was ≤ 16 µg/mL throughout. For the same compound, the IC50 in assay [3] was > 100 µM.
On to `C=C[C@H](N)CCCc1cc(-c2cc3cn(-c4cc(F)c([C@@H]5CCC[C@@H](CCNC(=N)CN)N5CCCF)c(SC)c4)c(=O)nc3[nH]2)cc(C(F)(F)F)c1` [Compound 62], for which the MIC was > 16 µg/mL in assay [1] and ≤ 16 µg/mL in assay [2]. For the same compound, the IC50 in assay [3] is > 100 µM.
